{"source": "patent US20250154105A1", "about": "“POLYCYCLIC COMPOUND AND USE THEREOF” (TYK MEDICINES, INC., priority 2021, published 2025)", "key": {"[1]": {"assay": "Rat pharmacokinetic experiment", "type": "in vivo", "conditions": "po, male SD rats, gavage (p.o.), 10 mg/kg, plasma", "excerpt": "TEST EXAMPLE 3 PHARMACOKINETIC EXPERIMENT OF COMPOUNDS\nPharmacokinetic test of compounds T-32/T-105/T-253/T-272/T-273/T-277 of the present invention.\nExperimental Protocol of Rat Pharmacokinetics\n• (1) Required animals: healthy adult SD rats, male, 3 rats, 6-8 weeks old; weighing 200-300 g. • (2) Required equipments: analytical balance, animal weight scale, magnetic stirrer, refrigerated centrifuge, single-channel manual pipettor, etc. • (3) Required reagents: EDTA-Na2 anticoagulant, etc. 11.2 g of EDTA-Na2 was weighed and placed in a reagent flask, 100 mL of normal saline was added, and the flask was shook to completely dissolve it. After the preparation was completed, it was divided into 1.5 mL centrifuge tubes with 20 uL each for whole blood sample collection. • (3) About 10 mg of the sample to be tested was accurately weighed, 5% DMSO after conversion was added to dissolve, then 30% PEG400 and 65% (10% Hp-β-CD in PBS) were added for sonication, and vortex-mixed evenly to obtain a solution with a concentration of 1 mg/mL which is freshly prepared before use. • (4) 0.1 mL of sample was taken into a 1.5 mL centrifuge tube and stored at −80° C. for concentration analysis of drug administration solution. • (5) Animals were kept in rat cages, and fasted (not less than 10 h) from the day before the test(but water was allowed). The animals were separately weighed and marked at the tail on the day of the test. Blank blood was collected before administration. The blood was collected from tail vein. • (6) Route of administration: gavage (p.o.); dosage: 10 mg/kg; administration volume: 10 mL/kg. • (7) Operation process: Use the left hand with anti-bite gloves to catch the rat, make it stand upright, stretch the 16th gastric lavage needle from the throat of the mouth, insert the needle when feeling out no obvious resistance, and then inject the drug into the stomach. • (8) 0.2 ml of whole blood was collected from the tested animals and added into EDTA-Na2 anticoagulant tubes before administration and 0.5 h, 1 h, 2 h, 4 h, 6 h, 8 h, 12 h and 24 h after administration respectively. The tubes were reversed up and down for 3-4 times and mixed evenly, centrifuged at 4° C. at 10000 g for 5 min to separate plasma, and stored at −80° C. for testing. The blood was collected from tail vein. • (9) LC-MS/MS method was established to determine the concentration of original drug in plasma, the blood drug concentration-time curve was drawn, and the main pharmacokinetic parameters were calculated by non-compartment model. • (10) Pharmacokinetic parameters of T-32/T-105/T-253/T-272/T-273/T-277 were shown below in Table 2."}, "[2]": {"test_system": "human pleural mesothelioma cells NCI-H226", "assay": "Cell anti-proliferation experiment (CCK8), NCI-H226", "type": "cell-based", "in_short": "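Viability was measured by CCK-8 (3 h, A450) after 3-day treatment with 0.15–333.33 nM compound in 0.1% DMSO medium. Curve-fitted IC50 was based on viability normalised to no-drug and cell-free controls.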"}}, "data": [{"smiles": "CNS(=O)(=O)c1ccc2c(c1)c1cn(C)nc1c(=O)n2-c1ccc(C(F)(F)F)cc1", "note": "[Example T-32]", "values": [{"measurement": "AUC(0-t)", "setting": "[1]", "value": 22200, "unit": "ng·h/mL"}, {"measurement": "Cmax", "setting": "[1]", "value": 2220, "unit": "ng/mL"}, {"measurement": "MRT last", "setting": "[1]", "value": 6.88, "unit": "h"}, {"measurement": "Tmax", "setting": "[1]", "value": 2.5, "unit": "h"}, {"measurement": "IC50", "setting": "[2]", "value": "≤ 1", "unit": "µM"}]}, {"smiles": "C[C@H](NC(=O)c1ccc2c(c1)c1nn(C)cc1c(=O)n2-c1ccc(C(F)(F)F)cc1)c1ccccn1", "note": "[Example T-105]", "values": [{"measurement": "AUC(0-t)", "setting": "[1]", "value": 53900, "unit": "ng·h/mL"}, {"measurement": "Cmax", "setting": "[1]", "value": 3870, "unit": "ng/mL"}, {"measurement": "MRT last", "setting": "[1]", "value": 9.48, "unit": "h"}, {"measurement": "Tmax", "setting": "[1]", "value": 4, "unit": "h"}, {"measurement": "IC50", "setting": "[2]", "value": "≤ 1", "unit": "µM"}]}, {"smiles": "C[C@H](NC(=O)c1ccc2c(c1)c1cnccc1c(=O)n2-c1ccc(C(F)(F)F)cc1)c1ccccn1", "note": "[Example T-253]", "values": [{"measurement": "AUC(0-t)", "setting": "[1]", "value": 39200, "unit": "ng·h/mL"}, {"measurement": "Cmax", "setting": "[1]", "value": 2640, "unit": "ng/mL"}, {"measurement": "MRT last", "setting": "[1]", "value": 9.78, "unit": "h"}, {"measurement": "Tmax", "setting": "[1]", "value": 4.7, "unit": "h"}, {"measurement": "IC50", "setting": "[2]", "value": "≤ 1", "unit": "µM"}]}, {"smiles": "C[C@H](NC(=O)c1ccc2c(c1)c1ccccc1c(=O)n2-c1ccc(C(F)(F)F)cc1)c1ccccn1", "note": "[Example T-272]", "values": [{"measurement": "AUC(0-t)", "setting": "[1]", "value": 21200, "unit": "ng·h/mL"}, {"measurement": "Cmax", "setting": "[1]", "value": 1410, "unit": "ng/mL"}, {"measurement": "MRT last", "setting": "[1]", "value": 9.96, "unit": "h"}, {"measurement": "Tmax", "setting": "[1]", "value": 5.3, "unit": "h"}, {"measurement": "IC50", "setting": "[2]", "value": "≤ 1", "unit": "µM"}]}, {"smiles": "Cc1cc(=O)n(-c2ccc(C(F)(F)F)cc2)c2ccc(C(=O)N[C@@H](C)c3ccccn3)cc12", "note": "[Example T-277]", "values": [{"measurement": "AUC(0-t)", "setting": "[1]", "value": 26900, "unit": "ng·h/mL"}, {"measurement": "Cmax", "setting": "[1]", "value": 2650, "unit": "ng/mL"}, {"measurement": "MRT last", "setting": "[1]", "value": 7.28, "unit": "h"}, {"measurement": "Tmax", "setting": "[1]", "value": 4.7, "unit": "h"}, {"measurement": "IC50", "setting": "[2]", "value": "≤ 1", "unit": "µM"}]}]}
